Results taken from patent US9062046B2, “Substituted imidazoquinoline derivatives as kinase inhibitors” (Piramal Enterprises Limited, priority 2011, dated 2015).

Legend:
[1] = tested on: A2780 (ovarian cell line); test: Cytotoxicity assay (propidium iodide assay), A2780; format: cell-based; settings: Homo sapiens, A2780 cells, 48 h treatment
Description: (§1) The assay was designed as in the reference, Anticancer Drugs, 2002, 13, 1-8, the disclosure of which is incorporated by reference for the teaching of the assay.
(§2) Cells from cell lines A2780 (ovarian cell line) and PC3 (prostate cell line) (both from ATCC) were seeded at a density of 3000 cells/well in a white opaque 96-well plate. Following incubation at 37° C./5% CO2 for a period of 18-24 h, the cells were treated with various concentrations (stock solution was prepared in DMSO and subsequent dilutions were made in media as per ATCC guidelines) of the test compounds for a period of 48 h. At the end of treatment, the culture medium was discarded, the cells were washed with 1×PBS and 200 μl of 7 μg/ml propidium iodide was added to each well. The plates were frozen at −70° C. overnight. For analysis, the plates were warmed to RT, allowed to thaw and were read in PoleStar fluorimeter with the fluorescence setting. The percentage of viable cells in the non-treated set of wells was considered to be 100 and the percentage viability following treatment was calculated accordingly. IC50 values were calculated from graphs plotted using these percentages.

PC3 (prostate cell line) = test: Cytotoxicity assay (propidium iodide assay), PC3; format: cell-based; settings: Homo sapiens, PC-3, PC3 cells, 48 h treatment
Description: as §1, §2

Structure (SMILES) | inhibition at 1 µM [1] | inhibition at 1 µM (PC3 (prostate cell line)) | IC50 [1] | IC50 (PC3 (prostate cell line))
Cn1c(=NC#N)n(-c2ccc(C(C)(C)C#N)nc2)c2c3cc(-c4cccc5ccccc45)ccc3ncc21 [Example 82, N-(1-(6-(2-cyanopropan-2-yl)pyridin-3-yl)-3-methyl-8-(naphthalen-1-yl)-1H-imidazo[4,5-c]quinolin-2(3H)-ylidene)cyanamide] | 30 to 70% | < 30% |  | 
CC(C)(C#N)c1ccc(-n2c(=NC#N)[nH]c3cnc4ccc(-c5cnc(N)c(C(F)(F)F)c5)cc4c32)cc1 [Example 83, N-(8-(6-amino-5-(trifluoromethyl)pyridin-3-yl)-1-(4-(2-cyanopropan-2-yl)phenyl)-1H-imidazo[4,5-c]quinolin-2(3H)-ylidene)cyanamide] | ≥ 70% | 30 to 70% |  | 
COc1ncc(-c2ccc3ncc4c(c3c2)n(-c2ccc(C(C)(C)C#N)cc2)c(=NC#N)n4C)cc1N [Example 84, N-(8-(5-amino-6-methoxypyridin-3-yl)-1-(4-(2-cyanopropan-2-yl)phenyl)-3-methyl-1H-imidazo[4,5-c]quinolin-2(3H)-ylidene)cyanamide] | ≥ 70% | ≥ 70% |  | 
CC(C)(C#N)c1ccc(-n2c(=NC#N)[nH]c3cnc4ccc(-c5cccnc5)cc4c32)cc1 [Example 85, N-(1-(4-(2-cyanopropan-2-yl)phenyl)-8-(pyridin-3-yl)-1H-imidazo[4,5-c]quinolin-2(3H)-ylidene)cyanamide] | < 30% | < 30% |  | 
CCn1c(=NC#N)n(-c2ccc(C(C)(C)C#N)cc2)c2c3cc(-c4cccnc4)ccc3ncc21 [Example 86, N-(1-(4-(2-cyanopropan-2-yl)phenyl)-3-ethyl-8-(pyridin-3-yl)-1H-imidazo[4,5-c]quinolin-2(3H)-ylidene)cyanamide] | ≥ 70% | 30 to 70% |  | 
Cn1c(=NC#N)n(-c2ccc(C(C)(C)C#N)cc2)c2c3cc(-c4cc(C(F)(F)F)ccc4F)ccc3ncc21 [Example 87, N-(1-(4-(2-cyanopropan-2-yl)phenyl)-8-(2-fluoro-5-(trifluoromethyl)phenyl)-3-methyl-1H-imidazo[4,5-c]quinolin-2(3H)-ylidene)cyanamide] | 30 to 70% | < 30% |  | 
COc1cc(-c2ccc3ncc4c(c3c2)n(-c2ccc(C(C)(C)C#N)cc2)c(=NC#N)n4C)cc(OC)c1OC [Example 88, N-(1-(4-(2-cyanopropan-2-yl)phenyl)-3-methyl-8-(3,4,5-trimethoxyphenyl)-1H-imidazo[4,5-c]quinolin-2(3H)-ylidene)cyanamide] | ≥ 70% | 30 to 70% |  | 
Cn1c(=NC#N)n(-c2ccc(C(C)(C)C#N)cc2)c2c3cc(C4=CCN(C(=O)OC(C)(C)C)CC4)ccc3ncc21 [Example 89, tert-butyl 4-(2-(cyanoimino)-1-(4-(2-cyanopropan-2-yl)phenyl)-3-methyl-2,3-dihydro-1H-imidazo[4,5-c]quinolin-8-yl)-5,6-dihydropyridine-1(2H)-carboxylate] | 30 to 70% | < 30% |  | 
Cn1c(=NC#N)n(-c2ccc(C(C)(C)C#N)cc2)c2c3cc(-c4ccc(N5CCOCC5)nc4)ccc3ncc21 [Example 90, N-(1-(4-(2-cyanopropan-2-yl)phenyl)-3-methyl-8-(6-morpholinopyridin-3-yl)-1H-imidazo[4,5-c]quinolin-2(3H)-ylidene)cyanamide] | ≥ 70% | 30 to 70% |  | 
COc1ccc(-c2ccc3ncc4c(c3c2)n(-c2ccc(C(C)(C)C#N)cc2)c(=NC#N)n4C)cn1 [Example 91, N-(1-(4-(2-cyanopropan-2-yl)phenyl)-8-(6-methoxypyridin-3-yl)-3-methyl-1H-imidazo[4,5-c]quinolin-2(3H)-ylidene)cyanamide] |  |  | ≤ 0.5 µM | ≤ 0.5 µM
Cn1c(=NC#N)n(-c2cncc(-c3ccccc3)c2)c2c3cc(-c4cnc(N)c(C(F)(F)F)c4)ccc3ncc21 [Example 92, N-(8-(6-amino-5-(trifluoromethyl)pyridin-3-yl)-3-methyl-1-(5-phenylpyridin-3-yl)-1H-imidazo[4,5-c]quinolin-2(3H)-ylidene)cyanamide] |  |  | ≤ 0.5 µM | ≤ 0.5 µM
COc1ncc(-c2ccc3ncc4c(c3c2)n(-c2cncc(-c3ccccc3)c2)c(=NC#N)n4C)cc1N [Example 93, N-(8-(5-amino-6-methoxypyridin-3-yl)-3-methyl-1-(5-phenylpyridin-3-yl)-1H-imidazo[4,5-c]quinolin-2(3H)-ylidene)cyanamide] |  |  | 0.5 to 2 µM | 0.5 to 2 µM
Cn1c(=NC#N)n(-c2ccc(C(C)(C)C#N)cc2)c2c3cc(-c4ccc5cc[nH]c5c4)ccc3ncc21 [Example 94, N-(1-(4-(2-cyanopropan-2-yl)phenyl)-8-(1H-indol-6-yl)-3-methyl-1H-imidazo[4,5-c]quinolin-2(3H)-ylidene)cyanamide] |  |  | ≤ 0.5 µM | ≤ 0.5 µM
COc1cc(OC)cc(-n2c(=NC#N)n(C)c3cnc4ccc(-c5cnc(N)c(C(F)(F)F)c5)cc4c32)c1 [Example 97, N-(8-(6-amino-5-(trifluoromethyl)pyridin-3-yl)-1-(3,5-dimethoxyphenyl)-3-methyl-1H-imidazo[4,5-c]quinolin-2(3H)-ylidene)cyanamide] | ≥ 70% | ≥ 70% |  | 
COc1ccc(-n2c(=NC#N)n(C)c3cnc4ccc(-c5cnc(N)c(C(F)(F)F)c5)cc4c32)c(OC)n1 [Example 98, N-(8-(6-amino-5-(trifluoromethyl)pyridin-3-yl)-1-(2,6-dimethoxypyridin-3-yl)-3-methyl-1H-imidazo[4,5-c]quinolin-2(3H)-ylidene)cyanamide] | ≥ 70% | ≥ 70% |  | 
COc1cc(OC)cc(-n2c(=NC#N)n(C)c3cnc4ccc(-c5cnc(OC)c(N)c5)cc4c32)c1 [Example 99, N-(8-(5-amino-6-methoxypyridin-3-yl)-1-(3,5-dimethoxyphenyl)-3-methyl-1H-imidazo[4,5-c]quinolin-2(3H)-ylidene)cyanamide] |  |  | ≤ 0.5 µM | 0.5 to 2 µM
COc1ccc(-n2c(=NC#N)n(C)c3cnc4ccc(-c5cnc6ccccc6c5)cc4c32)c(OC)c1 [Example 100, N-(1-(2,4-dimethoxyphenyl)-3-methyl-8-(quinolin-3-yl)-1H-imidazo[4,5-c]quinolin-2(3H)-ylidene)cyanamide] |  |  | ≤ 0.5 µM | ≤ 0.5 µM
COc1ccc(-n2c(=NC#N)n(C)c3cnc4ccc(-c5cccnc5)cc4c32)c(OC)c1 [Example 101, N-(1-(2,4-dimethoxyphenyl)-3-methyl-8-(pyridin-3-yl)-1H-imidazo[4,5-c]quinolin-2(3H)-ylidene)cyanamide] |  |  | ≤ 0.5 µM | ≤ 0.5 µM
COc1cc(OC)cc(-n2c(=NC#N)n(C)c3cnc4ccc(-c5cccnc5)cc4c32)c1 [Example 102, N-(1-(3,5-dimethoxyphenyl)-3-methyl-8-(pyridin-3-yl)-1H-imidazo[4,5-c]quinolin-2(3H)-ylidene)cyanamide] | ≥ 70% | < 30% |  | 
COc1ccc(-n2c(=NC#N)n(C)c3cnc4ccc(-c5ccc6ncccc6c5)cc4c32)c(OC)c1 [Example 103, N-(1-(2,4-dimethoxyphenyl)-3-methyl-8-(quinolin-6-yl)-1H-imidazo[4,5-c]quinolin-2(3H)-ylidene)cyanamide] |  |  | ≤ 0.5 µM | ≤ 0.5 µM
Cn1c(=NC#N)n(-c2ccc(OC(F)(F)F)cc2)c2c3cc(-c4cnc(N)c(C(F)(F)F)c4)ccc3ncc21 [Example 105, N-(8-(6-amino-5-(trifluoromethyl)pyridin-3-yl)-3-methyl-1-(4-(trifluoromethoxy)phenyl)-1H-imidazo[4,5-c]quinolin-2(3H)-ylidene)cyanamide] |  |  | ≤ 0.5 µM | ≤ 0.5 µM
COc1ncc(-c2ccc3ncc4c(c3c2)n(-c2ccc(OC(F)(F)F)cc2)c(=NC#N)n4C)cc1N [Example 106, N-(8-(5-amino-6-methoxypyridin-3-yl)-3-methyl-1-(4-(trifluoromethoxy)phenyl)-1H-imidazo[4,5-c]quinolin-2(3H)-ylidene)cyanamide] |  |  | ≤ 0.5 µM | ≤ 0.5 µM
Cn1c(=NC#N)n(-c2ccc(OC(F)(F)F)cc2)c2c3cc(-c4cccnc4)ccc3ncc21 [Example 108, N-(3-methyl-8-(pyridin-3-yl)-1-(4-(trifluoromethoxy)phenyl)-1H-imidazo[4,5-c]quinolin-2(3H)-ylidene)cyanamide] |  |  | ≤ 0.5 µM | 0.5 to 2 µM
Cn1c(=NC#N)n(-c2ccc(OC(F)(F)F)cc2)c2c3cc(-c4ccncc4)ccc3ncc21 [Example 109, N-(3-methyl-8-(pyridin-4-yl)-1-(4-(trifluoromethoxy)phenyl)-1H-imidazo[4,5-c]quinolin-2(3H)-ylidene)cyanamide] |  |  | ≤ 0.5 µM | 0.5 to 2 µM
Cc1cc(-c2ccc3ncc4c(c3c2)n(-c2ccc(C(C)(C)C#N)nc2)c(=NC#N)n4C)cnc1N1CCN(C(=O)OC(C)(C)C)CC1 [Example 119, tert-butyl 4-(5-(2-(cyanoimino)-1-(6-(2-cyanopropan-2-yl)pyridin-3-yl)-3-methyl-2,3-dihydro-1H-imidazo[4,5-c]quinolin-8-yl)-3-methylpyridin-2-yl)piperazine-1-carboxylate] | ≥ 70% | ≥ 70% |  | 
